{"source": "patent US6375993B1", "about": "“Pomegranate extracts and methods of using thereof” (priority 1999, dated 2002)", "test": "Copper-ions chelating capacity (LDL oxidation at increasing CuSO4)", "assay_type": "biochemical", "conditions": "25 μmol/L of EDTA; TBARS, two hours, 37° C.", "experimental": "In order to examine whether pomegranate juice inhibits LDL oxidation by chelation of metal ions, LDL (100 mg of protein/L) was incubated with 0.2 mL of pomegranate juice/L (0.56 μmol of polyphenols/L) in the presence of increasing concentrations of copper ions. Incubation of LDL with 25 μmol/L of Na2 EDTA served as a positive control, as EDTA is a potent chelator of metal ions. […] At higher copper ion concentrations, EDTA could no longer overcome the pro-oxidative effect of CuSO4."}
{"smiles": "O=C([O-])CN(CCN(CC(=O)[O-])CC(=O)O)CC(=O)O.[Na+].[Na+]", "note": "[EDTA, Na2 EDTA]", "values": [{"measurement": "CuSO4 concentration up to which copper ion-induced LDL oxidation was inhibited", "result": "up to 40 μmol/L"}]}
